Results from ChEMBL document CHEMBL1201861, “Genomics of Drug Sensitity in Cancer screening data, Wellcome Trust Sanger Institute”.

What was measured:
RPMI-6666 = assay: cells; assay type: functional, cell-based; details: Homo sapiens
Description: SANGER: Inhibition of human RPMI-6666 cell growth in a cell viability assay.

RL = assay: cells; assay type: functional, cell-based; details: Homo sapiens
Description: SANGER: Inhibition of human RL cell growth in a cell viability assay.

NB12 = assay: cells; assay type: functional, cell-based; details: Homo sapiens;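 also: growth inhibition of human NB12 cells, read out by a cell viability assay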
Description: SANGER: Inhibition of human NB12 cell growth in a cell viability assay.

SCC-3 = assay: cells; assay type: functional, cell-based; details: Homo sapiens;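 also: cell viability assay measuring inhibition of SCC-3 cell growth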
Description: SANGER: Inhibition of human SCC-3 cell growth in a cell viability assay.

CAL-148 = assay: cells; assay type: functional, cell-based; details: Homo sapiens
Description: SANGER: Inhibition of human CAL-148 cell growth in a cell viability assay.

DG-75 = assay: cells; assay type: functional, cell-based; details: Homo sapiens;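 also: growth inhibition of DG-75 cells, read out with a cell viability assay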
Description: SANGER: Inhibition of human DG-75 cell growth in a cell viability assay.

TUR = assay: cells; assay type: functional, cell-based; details: Homo sapiens;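 also: growth inhibition of human TUR cells, read out with a cell viability assay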
Description: SANGER: Inhibition of human TUR cell growth in a cell viability assay.

NCI-H187 = assay: cells; assay type: functional, cell-based; details: Homo sapiens;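 also: growth inhibition of NCI-H187 cells, read out as cell viability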
Description: SANGER: Inhibition of human NCI-H187 cell growth in a cell viability assay.

Kasumi 1 = assay: cells; assay type: functional, cell-based; details: Homo sapiens;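 also: growth inhibition of human Kasumi-1 cells, read out by a cell viability assay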
Description: SANGER: Inhibition of human KASUMI-1 cell growth in a cell viability assay.

RPMI 8402 = assay: SANGER: Inhibition of human RPMI-8402 cell growth in a cell viability assay.; assay type: functional, cell-based
THP-1 = assay: cells; assay type: functional, cell-based; details: Homo sapiens;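 also: growth inhibition of THP-1 cells, read out via a cell viability assay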
Description: SANGER: Inhibition of human THP-1 cell growth in a cell viability assay.

NB7 = assay: cells; assay type: functional, cell-based; details: Homo sapiens;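 also: growth inhibition of NB7 cells, read out with a cell viability assay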
Description: SANGER: Inhibition of human NB7 cell growth in a cell viability assay.

NCI-H719 = assay: cells; assay type: functional, cell-based; details: Homo sapiens;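 also: growth inhibition of the cultured cell line, read out with a viability assay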
Description: SANGER: Inhibition of human NCI-H719 cell growth in a cell viability assay.

BC1 cell line = assay: SANGER: Inhibition of human BC-1 cell growth in a cell viability assay.; assay type: functional, cell-based
NCI-H64 = assay: cells; assay type: functional, cell-based; details: Homo sapiens;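 also: growth inhibition of NCI-H64 cells, read out with a cell viability assay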
Description: SANGER: Inhibition of human NCI-H64 cell growth in a cell viability assay.

LP-1 = assay: cells; assay type: functional, cell-based; details: Homo sapiens;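 also: growth inhibition of human LP-1 cells, with the read-out taken from a cell viability assay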
Description: SANGER: Inhibition of human LP-1 cell growth in a cell viability assay.

EHEB = assay: cells; assay type: functional, cell-based; details: Homo sapiens;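 also: growth inhibition of human EHEB cells, read out with a cell viability assay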
Description: SANGER: Inhibition of human EHEB cell growth in a cell viability assay.

NCI-H716 = assay: cells; assay type: functional, cell-based; details: Homo sapiens;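 also: growth inhibition of human NCI-H716 cells, measured by a cell viability assay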
Description: SANGER: Inhibition of human NCI-H716 cell growth in a cell viability assay.

NCI-H460 = assay: cells; assay type: functional, cell-based; details: Homo sapiens;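 also: cell viability assay scoring growth inhibition of human NCI-H460 cells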
Description: SANGER: Inhibition of human NCI-H460 cell growth in a cell viability assay.

PANC-08-13 = assay: cells; assay type: functional, cell-based; details: Homo sapiens
Description: SANGER: Inhibition of human PANC-08-13 cell growth in a cell viability assay.

OVCAR-3 = assay: cells; assay type: functional, cell-based; details: Homo sapiens;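 also: growth inhibition of human OVCAR-3 cells, determined by a cell viability assay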
Description: SANGER: Inhibition of human OVCAR-3 cell growth in a cell viability assay.

RPMI-7951 = assay: cells; assay type: functional, cell-based; details: Homo sapiens
Description: SANGER: Inhibition of human RPMI-7951 cell growth in a cell viability assay.

CAMA-1 = assay: cells; assay type: functional, cell-based; details: Homo sapiens;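 also: growth inhibition of CAMA-1 cells, read out with a cell viability assay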
Description: SANGER: Inhibition of human CAMA-1 cell growth in a cell viability assay.

NCI-H520 = assay: cells; assay type: functional, cell-based; details: Homo sapiens;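 also: growth inhibition of NCI-H520 cells, measured by a cell viability assay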
Description: SANGER: Inhibition of human NCI-H520 cell growth in a cell viability assay.

DoTc2-4510 = assay: cells; assay type: functional, cell-based; details: Homo sapiens
HCC1806 = assay: cells; assay type: functional, cell-based; details: Homo sapiens;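 also: growth inhibition of the cancer cell line, determined with a cell viability assay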
Description: SANGER: Inhibition of human HCC1806 cell growth in a cell viability assay.

LN-405 = assay: cells; assay type: functional, cell-based; details: Homo sapiens
Description: SANGER: Inhibition of human LN-405 cell growth in a cell viability assay.

SW-620 = assay: cells; assay type: functional, cell-based; details: Homo sapiens;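 also: growth inhibition of human SW-620 cells, measured by a cell viability assay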
Description: SANGER: Inhibition of human SW620 cell growth in a cell viability assay.

TCC-SUP = assay: cells; assay type: functional, cell-based; details: Homo sapiens;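 also: growth inhibition of TCC-SUP cells, read out with a cell viability assay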
Description: SANGER: Inhibition of human TCCSUP cell growth in a cell viability assay.

BHT-101 = assay: cells; assay type: functional, cell-based; details: Homo sapiens
Description: SANGER: Inhibition of human BHT-101 cell growth in a cell viability assay.

RD = assay: cells; assay type: functional, cell-based; details: Homo sapiens
Description: SANGER: Inhibition of human RD cell growth in a cell viability assay.

GAMG = assay: cells; assay type: functional, cell-based; details: Homo sapiens;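 also: cell growth inhibition measured by a viability assay in the GAMG human cell line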
Description: SANGER: Inhibition of human GAMG cell growth in a cell viability assay.

WM-115 = assay: cells; assay type: functional, cell-based; details: Homo sapiens
Description: SANGER: Inhibition of human WM-115 cell growth in a cell viability assay.

BCPAP = assay: cells; assay type: functional, cell-based; details: Homo sapiens;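 also: growth inhibition of BCPAP cells, read out in a cell viability assay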
Description: SANGER: Inhibition of human BCPAP cell growth in a cell viability assay.

LCLC-103H cell line = assay: cells; assay type: functional, cell-based; details: Homo sapiens
Description: SANGER: Inhibition of human LCLC-103H cell growth in a cell viability assay.

EGI-1 = assay: cells; assay type: functional, cell-based; details: Homo sapiens;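 also: cell viability readout used to gauge growth inhibition of EGI-1 cells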
Description: SANGER: Inhibition of human EGI-1 cell growth in a cell viability assay.

ABC-1 = assay: cells; assay type: functional, cell-based; details: Homo sapiens;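 also: growth inhibition of human ABC-1 cells, read out by a cell viability assay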
Description: SANGER: Inhibition of human ABC-1 cell growth in a cell viability assay.

Detroit 562 = assay: cells; assay type: functional, cell-based; details: Homo sapiens;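 also: growth inhibition of human Detroit 562 cells, read out by a cell viability assay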
Description: SANGER: Inhibition of human Detroit562 cell growth in a cell viability assay.

M059J = assay: cells; assay type: functional, cell-based; details: Homo sapiens;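 also: growth inhibition of M059J cells, read out with a cell viability assay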
Description: SANGER: Inhibition of human M059J cell growth in a cell viability assay.

SW1463 = assay: cells; assay type: functional, cell-based; details: Homo sapiens;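 also: growth inhibition of SW1463 cells, determined with a cell viability assay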
Description: SANGER: Inhibition of human SW1463 cell growth in a cell viability assay.

HN = assay: cells; assay type: functional, cell-based; details: Homo sapiens
Description: SANGER: Inhibition of human HN cell growth in a cell viability assay.

RMG-I = assay: cells; assay type: functional, cell-based; details: Homo sapiens;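 also: growth inhibition of human RMG-I cells, read out with a cell viability assay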
Description: SANGER: Inhibition of human RMG-I cell growth in a cell viability assay.

BFTC-905 = assay: cells; assay type: functional, cell-based; details: Homo sapiens
Description: SANGER: Inhibition of human BFTC-905 cell growth in a cell viability assay.

G-401 = assay: cells; assay type: functional, cell-based; details: Homo sapiens
Description: SANGER: Inhibition of human G-401 cell growth in a cell viability assay.

HuO9 = assay: cells; assay type: functional, cell-based; details: Homo sapiens;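 also: growth inhibition of HuO9 cells, read out with a cell viability assay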
Description: SANGER: Inhibition of human HuO9 cell growth in a cell viability assay.

SW626 = assay: cells; assay type: functional, cell-based; details: Homo sapiens;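 also: growth inhibition of SW626 cells, measured with a cell viability assay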
Description: SANGER: Inhibition of human SW626 cell growth in a cell viability assay.

GP5d = assay: cells; assay type: functional, cell-based; details: Homo sapiens;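 also: growth inhibition of human GP5d cells, read out with a cell viability assay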
Description: SANGER: Inhibition of human GP5d cell growth in a cell viability assay.

NCI-H1792 = assay: cells; assay type: functional, cell-based; details: Homo sapiens;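 also: growth inhibition of human NCI-H1792 cells, read out as cell viability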
Description: SANGER: Inhibition of human NCI-H1792 cell growth in a cell viability assay.

J82 = assay: cells; assay type: functional, cell-based; details: Homo sapiens;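 also: growth inhibition of J82 cells, read out with a cell viability assay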
Description: SANGER: Inhibition of human J82 cell growth in a cell viability assay.

SK-LU-1 = assay: cells; assay type: functional, cell-based; details: Homo sapiens;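 also: cell viability assay measuring growth inhibition of human SK-LU-1 cells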
Description: SANGER: Inhibition of human SK-LU-1 cell growth in a cell viability assay.

CAL-39 = assay: cells; assay type: functional, cell-based; details: Homo sapiens;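 also: cell viability assay measuring growth inhibition of CAL-39 cells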
Description: SANGER: Inhibition of human CAL-39 cell growth in a cell viability assay.

CAL-72 = assay: cells; assay type: functional, cell-based; details: Homo sapiens;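 also: cell viability assay measuring inhibition of proliferation in the CAL-72 cell line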
Description: SANGER: Inhibition of human CAL-72 cell growth in a cell viability assay.

HuP-T4 = assay: cells; assay type: functional, cell-based; details: Homo sapiens;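 also: cell viability assay measuring how much HuP-T4 cell growth is inhibited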
Description: SANGER: Inhibition of human HuP-T4 cell growth in a cell viability assay.

T98G = assay: cells; assay type: functional, cell-based; details: Homo sapiens;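 also: growth inhibition of T98G cells, read out by a cell viability assay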
Description: SANGER: Inhibition of human T98G cell growth in a cell viability assay.

UMC-11 = assay: cells; assay type: functional, cell-based; details: Homo sapiens;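 also: growth inhibition of UMC-11 cells, read out with a cell viability assay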
Description: SANGER: Inhibition of human UMC-11 cell growth in a cell viability assay.

A204 = assay: cells; assay type: functional, cell-based; details: Homo sapiens;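 also: growth inhibition of human A204 cells, read out with a cell viability assay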
Description: SANGER: Inhibition of human A204 cell growth in a cell viability assay.

BPH-1 = assay: cells; assay type: functional, cell-based; details: Homo sapiens;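 also: cell viability assay measuring growth inhibition of human BPH-1 cells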
Description: SANGER: Inhibition of human BPH-1 cell growth in a cell viability assay.

SK-HEP1 = assay: cells; assay type: functional, cell-based, SK-HEP-1; details: Homo sapiens;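 also: cell viability readout used to quantify reduction in proliferation of human SK-HEP-1 cells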
Description: SANGER: Inhibition of human SK-HEP-1 cell growth in a cell viability assay.

CHL-1 = assay: cells; assay type: functional, cell-based; details: Homo sapiens;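 also: cell growth inhibition, read out with a cell viability assay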
Description: SANGER: Inhibition of human CHL-1 cell growth in a cell viability assay.

M14 = assay: cells; assay type: functional, cell-based; details: Homo sapiens;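 also: growth inhibition of M14 cells, read out with a cell viability assay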
Description: SANGER: Inhibition of human M14 cell growth in a cell viability assay.

MDA-MB-157 = assay: cells; assay type: functional, cell-based; details: Homo sapiens
Description: SANGER: Inhibition of human MDA-MB-157 cell growth in a cell viability assay.

COLO-792 = assay: cells; assay type: functional, cell-based; details: Homo sapiens
Description: SANGER: Inhibition of human COLO-792 cell growth in a cell viability assay.

SW48 = assay: cells; assay type: functional, cell-based; details: Homo sapiens;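 also: growth inhibition of SW48 cells, read out with a cell viability assay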
Description: SANGER: Inhibition of human SW48 cell growth in a cell viability assay.

HSC-3 = assay: cells; assay type: functional, cell-based; details: Homo sapiens
Description: SANGER: Inhibition of human HSC-3 cell growth in a cell viability assay.

NCI-H1623 = assay: cells; assay type: functional, cell-based; details: Homo sapiens;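 also: cell viability assay used as the read-out for growth inhibition of NCI-H1623 cells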
Description: SANGER: Inhibition of human NCI-H1623 cell growth in a cell viability assay.

SF-295 = assay: cells; assay type: functional, cell-based; details: Homo sapiens;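 also: growth inhibition of SF-295 cells, read out with a cell viability assay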
Description: SANGER: Inhibition of human SF295 cell growth in a cell viability assay.

Cc1ccc(NC(=O)c2cccc(C(C)(C)C#N)c2)cc1Nc1ccc2ncn(C)c(=O)c2c1
IC50 (RPMI-6666): > 4000 nM
IC50 (RL): > 4000 nM
IC50 (NB12): > 4 µM
IC50 (SCC-3): > 4000 nM
IC50 (CAL-148): > 4000 nM
IC50 (DG-75): > 4000 nM
IC50 (TUR): > 4000 nM
IC50 (NCI-H187): > 4000 nM
IC50 (Kasumi 1): > 4000 nM
IC50 (RPMI 8402): > 4000 nM
IC50 (THP-1): > 4000 nM
IC50 (NB7): > 4000 nM
IC50 (NCI-H719): > 4000 nM
IC50 (BC1 cell line): > 4000 nM
IC50 (NCI-H64): > 4000 nM
IC50 (LP-1): > 4000 nM
IC50 (EHEB): > 4000 nM
IC50 (NCI-H716): > 4000 nM

NC(=O)c1ncn([C@@H]2O[C@H](COP(=O)(O)O)[C@@H](O)[C@H]2O)c1N
IC50 (NCI-H460): 1360 µM
IC50 (PANC-08-13): 1.3 mM
IC50 (OVCAR-3): > 2 mM
IC50 (RPMI-7951): 1580 µM
IC50 (CAMA-1): 354 µM
IC50 (NCI-H520): 744 µM
IC50 (NB12): > 2000 µM
IC50 (DoTc2-4510): 1.25 mM
IC50 (HCC1806): 361 µM
IC50 (LN-405): > 2 mM
IC50 (SW-620): > 2000 µM
IC50 (TCC-SUP): 1.03 mM
IC50 (BHT-101): > 2000 µM
IC50 (RD): > 2 mM
IC50 (GAMG): > 2000 µM
IC50 (WM-115): > 2 mM
IC50 (BCPAP): 733 µM
IC50 (LCLC-103H cell line): 1.37 mM
IC50 (EGI-1): > 2000 µM
IC50 (ABC-1): > 2000 µM
IC50 (Detroit 562): 1.22 mM
IC50 (M059J): > 2 mM
IC50 (SW1463): > 2 mM
IC50 (HN): 252 µM
IC50 (RMG-I): > 2 mM
IC50 (BFTC-905): > 2000 µM
IC50 (G-401): > 2000 µM
IC50 (HuO9): 1.97 mM
IC50 (SW626): > 2 mM
IC50 (GP5d): 1.77 mM
IC50 (NCI-H1792): 1.59 mM
IC50 (J82): > 2 mM
IC50 (SK-LU-1): 1700 µM
IC50 (CAL-39): > 2000 µM
IC50 (CAL-72): 321 µM
IC50 (HuP-T4): > 2 mM
IC50 (T98G): > 2000 µM
IC50 (UMC-11): > 2 mM
IC50 (A204): > 2000 µM
IC50 (BPH-1): 1.56 mM
IC50 (SK-HEP1): 920 µM
IC50 (CHL-1): > 2 mM
IC50 (M14): 295 µM
IC50 (MDA-MB-157): 1.21 mM
IC50 (NB7): 901000 nM
IC50 (COLO-792): > 2 mM
IC50 (SW48): 932 µM
IC50 (HSC-3): 259 µM
IC50 (NCI-H1623): > 2 mM

Cc1n[nH]c2ccc(-c3cncc(OC[C@@H](N)Cc4c[nH]c5ccccc45)c3)cc12 [A-443654]
IC50 (RPMI-6666): 152 nM
IC50 (RL): > 1020 nM
IC50 (SCC-3): 620 nM
IC50 (CAL-148): 88.3 nM
IC50 (DG-75): 546 nM
IC50 (TUR): > 1020 nM
IC50 (NCI-H187): 464 nM
IC50 (Kasumi 1): > 1020 nM
IC50 (RPMI 8402): 184 nM
IC50 (THP-1): > 1020 nM
IC50 (NB7): > 1020 nM
IC50 (NCI-H719): > 1020 nM
IC50 (BC1 cell line): 701 nM
IC50 (NCI-H64): > 1020 nM
IC50 (LP-1): > 1020 nM
IC50 (EHEB): 402 nM
IC50 (NCI-H716): > 1020 nM

Cc1nc(Nc2ncc(C(=O)Nc3c(C)cccc3Cl)s2)cc(N2CCN(CCO)CC2)n1 [DASATINIB]
IC50 (RPMI-6666): > 1280 nM
IC50 (RL): > 1280 nM
IC50 (SCC-3): > 1280 nM
IC50 (CAL-148): > 1280 nM
IC50 (DG-75): > 1280 nM
IC50 (TUR): > 1280 nM
IC50 (NCI-H187): > 1280 nM
IC50 (Kasumi 1): > 1280 nM
IC50 (RPMI 8402): > 1280 nM
IC50 (THP-1): > 1280 nM
IC50 (NB7): > 1280 nM
IC50 (NCI-H719): > 1280 nM
IC50 (BC1 cell line): > 1280 nM
IC50 (NCI-H64): > 1280 nM
IC50 (LP-1): > 1280 nM
IC50 (EHEB): > 1280 nM
IC50 (NCI-H716): > 1280 nM

CC(=O)c1c(C)c2cnc(Nc3ccc(N4CCNCC4)cn3)nc2n(C2CCCC2)c1=O [PALBOCICLIB]
IC50 (NCI-H460): 3.67 µM
IC50 (PANC-08-13): > 0.004 mM
IC50 (OVCAR-3): > 0.004 mM
IC50 (RPMI-7951): 2.76 µM
IC50 (CAMA-1): 0.834 µM
IC50 (NCI-H520): 0.747 µM
IC50 (NB12): > 4 µM
IC50 (DoTc2-4510): > 0.004 mM
IC50 (HCC1806): > 4 µM
IC50 (LN-405): > 0.004 mM
IC50 (SW-620): 2.26 µM
IC50 (TCC-SUP): > 0.004 mM
IC50 (BHT-101): 0.198 µM
IC50 (RD): > 0.004 mM
IC50 (GAMG): 2.59 µM
IC50 (WM-115): > 0.004 mM
IC50 (BCPAP): 1.66 µM
IC50 (LCLC-103H cell line): > 0.004 mM
IC50 (EGI-1): 2.47 µM
IC50 (ABC-1): 1.79 µM
IC50 (Detroit 562): > 0.004 mM
IC50 (M059J): > 0.004 mM
IC50 (SW1463): > 0.004 mM
IC50 (HN): 1.54 µM
IC50 (RMG-I): > 0.004 mM
IC50 (BFTC-905): 1.24 µM
IC50 (G-401): 1.92 µM
IC50 (HuO9): > 0.004 mM
IC50 (SF-295): > 4 µM
IC50 (SW626): > 0.004 mM
IC50 (GP5d): > 0.004 mM
IC50 (NCI-H1792): > 0.004 mM
IC50 (SK-LU-1): 1.62 µM
IC50 (CAL-39): 1.08 µM
IC50 (CAL-72): > 4 µM
IC50 (HuP-T4): > 0.004 mM
IC50 (T98G): 2.01 µM
IC50 (UMC-11): > 0.004 mM
IC50 (A204): 0.634 µM
IC50 (BPH-1): > 0.004 mM
IC50 (SK-HEP1): 2.59 µM
IC50 (CHL-1): > 0.004 mM
IC50 (M14): > 4 µM
IC50 (MDA-MB-157): > 0.004 mM
IC50 (NB7): 1990 nM
IC50 (COLO-792): > 0.004 mM
IC50 (SW48): > 4 µM
IC50 (HSC-3): 0.966 µM
IC50 (NCI-H1623): > 0.004 mM

Cc1[nH]c(/C=C2\C(=O)Nc3ccc(S(=O)(=O)Cc4c(Cl)cccc4Cl)cc32)c(C)c1C(=O)N1CCC[C@@H]1CN1CCCC1 [PHA-665752]
IC50 (RPMI-6666): > 2000 nM
IC50 (RL): > 2000 nM
IC50 (SCC-3): > 2000 nM
IC50 (CAL-148): > 2000 nM
IC50 (DG-75): > 2000 nM
IC50 (TUR): > 2000 nM
IC50 (NCI-H187): > 2000 nM
IC50 (Kasumi 1): > 2000 nM
IC50 (RPMI 8402): > 2000 nM
IC50 (THP-1): > 2000 nM
IC50 (NB7): > 2000 nM
IC50 (NCI-H719): > 2000 nM
IC50 (BC1 cell line): > 2000 nM
IC50 (NCI-H64): > 2000 nM
IC50 (LP-1): > 2000 nM
IC50 (EHEB): > 2000 nM
IC50 (NCI-H716): > 2000 nM
